In patent US10351553B2, “Potassium channel modulators” (Cadent Therapeutics, Inc., priority 2017, dated 2019):

Assays:
SK2 channels = biological target: T1, SK2 channels (Homo sapiens, UniProt Q9H2S1); assay: Whole-cell patch-clamp of SK2 current in HEK293 cells expressing SK2 channels; format: cell-based; conditions: for SK2 potency (SC100): Table 2, concentration that produces doubling of channel current, averages from later experiments
T1 construct: expressed in transfected cells; host or cells: HEK293
Protocol: The biological activity was determined as follows. The ionic current through small-conductance Ca^2+-activated K^+ channels (SK channels, subtype 2) was measured using the whole-cell configuration of the patch-clamp technique in a patch-clamp set-up using HEK293 tissue culture cells expressing SK2 channels as described in Hougaard et al., British Journal of Pharmacology 151, 655-665, May 8, 2007, the entire teachings of which are incorporated herein by reference. In one aspect, a compound is defined to be an SK Positive Allosteric Modulator (PAM) if the compound increases current in this assay, for example, if the SC100 value of the compound is less than or equal to 10 μM as determined by this assay. The SC100 value is defined to be the concentration of compound that increases the basal current by 100%.

[1] = Metabolic stability in liver microsomes, dog; format: in vitro ADME; conditions: % remaining at 1 hour; 1 μM
Protocol: Metabolic stability profiling of the compounds was performed in liver microsomes. In this assay, test compound is incubated with liver microsomes in the presence of NADPH for 2 time points at 37° C. At the end of incubation, reaction is quenched with acetonitrile containing internal standard and the parent compound remaining is determined by LC-MS/MS. Conditions used in the assay are summarized below. […], 37° C. • Test concentration: 1 μM in 0.02% DMSO at pH 7.4 (n=2) • NADPH concentration in assay: 1 mM • Liver microsome protein concentration in assay: 0.5 mg/ml • Analysis: LC-MS/MS • Data reported: % Parent Compound Remaining (% PCR) • Reference compounds for high and low clearance are included • Species tested: mouse, rat, dog, monkey, and human

CYP1A2 = biological target: T2, CYP1A2 (Homo sapiens, UniProt P05177); assay: CYP inhibition in human liver microsome, CYP1A2 (Phenacetin); format: in vitro ADME
T2 construct: Matrix: Human Liver Microsome (Invitrogen, life technologies); tissue Invitrogen, life technologies; host or cells: human liver microsomes
T2 sequence (P05177 1-516): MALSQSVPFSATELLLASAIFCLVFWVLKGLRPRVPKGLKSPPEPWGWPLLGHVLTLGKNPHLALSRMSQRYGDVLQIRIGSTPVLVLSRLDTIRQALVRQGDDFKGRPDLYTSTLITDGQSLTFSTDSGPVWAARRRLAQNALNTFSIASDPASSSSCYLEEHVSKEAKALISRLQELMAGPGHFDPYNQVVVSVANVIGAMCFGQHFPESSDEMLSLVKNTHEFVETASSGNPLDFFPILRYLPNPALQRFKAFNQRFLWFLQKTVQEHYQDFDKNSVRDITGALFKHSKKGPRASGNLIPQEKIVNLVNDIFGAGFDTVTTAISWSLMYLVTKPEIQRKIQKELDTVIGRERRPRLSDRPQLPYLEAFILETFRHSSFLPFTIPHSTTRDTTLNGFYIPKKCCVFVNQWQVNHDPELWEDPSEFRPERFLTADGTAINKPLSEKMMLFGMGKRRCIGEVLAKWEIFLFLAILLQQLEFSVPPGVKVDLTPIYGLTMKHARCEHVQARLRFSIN
Protocol: (§1) Compounds described herein were tested for CYP inhibition across 5 isoforms (3A4, 2D6, 2C9, 2C19 & 1A2). In this assay, CYP isoform specific substrates are incubated with human liver microsome (HLM) in the presence of test compounds, and metabolite formation is determined. Percentage inhibition of metabolite formation at different concentrations of test compound is calculated and IC50 is determined. Conditions used in the assay are summarized below. Results are shown in Table 2. • Test drug (Inhibitor) Concentration: 8 different concentrations (100 μM to 0.005 μM) • Matrix: Human Liver Microsome (Invitrogen, life technologies) • Specific probe substrates will be used for the isoforms as given below: • CYP3A4: Midazolam • CYP2D6: Bufuralol • CYP2C9: Diclofenac • CYP2C19: Mephynitoin • CYP1A2: Phenacetin • Cofactors: NADPH (1 mM final in assay) • Sample Analysis: LC-MS/MS (metabolites) • Specific reference inhibitors included in all assays (Ketoconazole/Quinidine/Sulphaphenazole/Ticlopidine/Furafylline) • Buffer: Potassium Phosphate Buffer (100 mM) pH 7.4 • DMSO level in assay: 0.1% • Data analysis: % Inhibition over control

CYP3A4 = biological target: T3, CYP3A4 (Homo sapiens, UniProt P08684); assay: CYP inhibition in human liver microsome, CYP3A4 (Midazolam); format: in vitro ADME
T3 construct: Matrix: Human Liver Microsome (Invitrogen, life technologies); tissue Invitrogen, life technologies; host or cells: human liver microsomes
T3 sequence (P08684 whole entry): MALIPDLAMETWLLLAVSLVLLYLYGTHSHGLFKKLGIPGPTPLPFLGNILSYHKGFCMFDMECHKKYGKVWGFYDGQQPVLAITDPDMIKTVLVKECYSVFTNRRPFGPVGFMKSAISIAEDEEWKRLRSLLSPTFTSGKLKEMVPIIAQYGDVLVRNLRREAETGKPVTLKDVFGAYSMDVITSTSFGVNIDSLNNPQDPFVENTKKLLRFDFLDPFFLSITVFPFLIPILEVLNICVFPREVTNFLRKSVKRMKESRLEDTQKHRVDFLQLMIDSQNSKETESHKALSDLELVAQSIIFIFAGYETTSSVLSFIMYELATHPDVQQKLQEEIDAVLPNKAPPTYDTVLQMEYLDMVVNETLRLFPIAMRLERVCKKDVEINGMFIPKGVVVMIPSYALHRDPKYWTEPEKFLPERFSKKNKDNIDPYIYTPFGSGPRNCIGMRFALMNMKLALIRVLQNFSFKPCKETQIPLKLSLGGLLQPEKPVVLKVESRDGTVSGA
Protocol: as §1

CYP2D6 = biological target: T4, CYP2D6 (Homo sapiens, UniProt P10635); assay: CYP inhibition in human liver microsome, CYP2D6 (Bufuralol); format: in vitro ADME
T4 construct: Matrix: Human Liver Microsome (Invitrogen, life technologies); tissue Invitrogen, life technologies; host or cells: human liver microsomes
T4 sequence (P10635 whole entry): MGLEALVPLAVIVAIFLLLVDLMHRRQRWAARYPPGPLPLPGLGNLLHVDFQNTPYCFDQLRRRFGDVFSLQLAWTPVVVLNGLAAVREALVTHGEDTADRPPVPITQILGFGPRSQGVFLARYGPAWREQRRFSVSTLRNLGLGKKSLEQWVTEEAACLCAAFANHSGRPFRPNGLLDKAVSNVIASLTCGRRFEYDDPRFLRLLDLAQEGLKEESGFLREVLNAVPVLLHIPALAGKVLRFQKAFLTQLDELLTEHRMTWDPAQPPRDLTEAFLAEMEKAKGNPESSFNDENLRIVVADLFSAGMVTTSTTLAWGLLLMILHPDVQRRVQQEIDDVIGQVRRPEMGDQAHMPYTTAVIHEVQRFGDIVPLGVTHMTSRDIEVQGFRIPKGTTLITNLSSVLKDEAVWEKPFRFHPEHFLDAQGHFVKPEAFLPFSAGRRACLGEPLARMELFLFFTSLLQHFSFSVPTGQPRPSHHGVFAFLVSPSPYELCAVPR
Protocol: as §1

hERG = biological target: T5, hERG (Homo sapiens, UniProt Q12809); assay: Cardiac potassium channel hERG assay, whole-cell patch clamp in HEK-293 cells; format: cell-based; conditions: HEK-293 cells stably transfected with hERG; read-out: hERG inhibition (IC50)
T5 construct: host or cells: HEK-293
T5 sequence (Q12809 whole entry): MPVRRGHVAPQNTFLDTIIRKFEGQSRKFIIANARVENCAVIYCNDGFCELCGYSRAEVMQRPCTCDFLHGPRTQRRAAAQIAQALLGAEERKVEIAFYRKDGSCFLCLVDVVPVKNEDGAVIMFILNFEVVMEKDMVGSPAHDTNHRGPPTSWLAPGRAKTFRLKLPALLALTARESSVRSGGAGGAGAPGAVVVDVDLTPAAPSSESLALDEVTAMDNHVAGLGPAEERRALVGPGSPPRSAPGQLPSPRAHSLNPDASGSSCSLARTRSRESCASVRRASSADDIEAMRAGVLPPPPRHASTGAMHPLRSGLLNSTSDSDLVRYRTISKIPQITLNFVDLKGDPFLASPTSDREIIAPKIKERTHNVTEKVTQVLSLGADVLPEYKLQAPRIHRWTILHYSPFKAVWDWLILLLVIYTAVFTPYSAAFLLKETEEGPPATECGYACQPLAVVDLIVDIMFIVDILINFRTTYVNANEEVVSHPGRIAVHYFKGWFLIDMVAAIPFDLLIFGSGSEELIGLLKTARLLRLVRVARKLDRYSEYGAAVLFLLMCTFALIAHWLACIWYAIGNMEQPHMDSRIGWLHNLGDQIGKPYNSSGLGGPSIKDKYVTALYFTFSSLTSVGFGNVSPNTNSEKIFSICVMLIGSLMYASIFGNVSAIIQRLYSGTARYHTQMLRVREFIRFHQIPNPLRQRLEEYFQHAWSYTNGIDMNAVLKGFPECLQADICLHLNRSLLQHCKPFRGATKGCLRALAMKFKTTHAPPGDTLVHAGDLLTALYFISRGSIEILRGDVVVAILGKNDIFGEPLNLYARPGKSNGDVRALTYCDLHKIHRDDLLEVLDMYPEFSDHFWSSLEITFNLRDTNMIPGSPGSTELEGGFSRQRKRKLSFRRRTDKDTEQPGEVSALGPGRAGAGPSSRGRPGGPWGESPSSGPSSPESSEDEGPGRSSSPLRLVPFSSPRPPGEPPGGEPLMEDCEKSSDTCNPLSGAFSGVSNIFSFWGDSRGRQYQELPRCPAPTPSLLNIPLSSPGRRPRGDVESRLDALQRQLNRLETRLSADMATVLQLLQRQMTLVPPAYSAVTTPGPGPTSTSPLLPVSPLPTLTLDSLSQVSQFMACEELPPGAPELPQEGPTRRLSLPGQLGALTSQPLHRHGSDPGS
Protocol: Compounds were tested in a cardiac potassium channel hERG assay. hERG is responsible for a rapid delayed rectifier current (IKr) in human ventricles. Inhibition of IKr is the most common cause of cardiac action potential prolongation by non-cardiac drugs. See e.g., Brown, A. M. and Rampe, D. (2000). Drug-induced long QT syndrome: is HERG the root of all evil? Pharmaceutical News 7, 15-20.
HEK-293 cells were stably transfected with hERG cDNA. Stable transfectants were selected by coexpression with the G418-resistance gene incorporated into the expression plasmid. Selection pressure was maintained by including G418 in the culture medium. Cells were cultured in Dulbecco's Modified Eagle Medium/Nutrient Mixture F-12 (D-MEM/F-12) supplemented with 10% fetal bovine serum, 100 U/mL penicillin G sodium, 100 μg/mL streptomycin sulfate and 500 μg/mL G418. Cell culture records are kept on file at Charles River Laboratories. […]
Onset and steady state inhibition of hERG current was measured using a pulse pattern with fixed amplitudes (conditioning prepulse: +20 mV for 2 s; test pulse: −50 mV for 2 s) repeated at 10 s intervals, from a holding potential of −80 mV. Peak tail current was measured during the 2 s step to −50 mV.
One test article concentration was applied to each cell (n=3). Peak current was measured during the test ramp. […] Peak current was measured until a new steady state was achieved.

Structure (SMILES)	Measured SK2 SC100 (SK2 channels; Table 1, concentration that increases the basal current by 100%)	SK2 potency (SC100) (SK2 channels)	Liver microsome stability, Dog [1]	IC50 (CYP1A2)	IC50 (CYP3A4)	IC50 (CYP2D6)	IC50 (hERG)
Cc1ccn(-c2nc(NC3CCC(F)(F)CC3)cc(N3CCOCC3)n2)n1 [Compound 1, N-(4,4-difluorocyclohexyl)-2-(3-methyl-1H-pyrazol-1-yl)-6-morpholinopyrimidin-4-amine]	0.5 µM	0.4 µM	54%	> 10 µM	> 10 µM	> 10 µM	> 10 µM
Cc1cc(NC2CCCCC2)nc(-n2nc(C)cc2C)n1 [Comparator A, reference compound]		1.38 µM	2%	0.64 µM	> 10 µM	0.79 µM	> 10 µM
